Experiment [1] deals with wild-type Arabidopsis seeds. Put plainly: Root elongation assay (Test Example 5), wild-type seeds. The format is in vivo. The note with it: wild-type seeds (35S:TIR1 WT in FIG. 4), 0.1 μM. On the procedure: (§1) FIG. 4 This is a diagram showing the results of root elongation assay in Test Example 5. On the left side of the photo, “35S:TIR1^F79G” indicates experiments using Arabidopsis seeds having an expression cassette of a mutant auxin receptor (TIR1 F79G), whereas “35S:TIR1^WT” indicates Arabidopsis seeds expressing the wild type auxin receptor (TIR1). On the upper part of the photo, “DMSO” indicates experiments where the plants are not treated with test compounds, “IAA(1) 0.1 μM” indicates experiments where auxin (indole-3-acetic acid) is used as the test compound, and “21 0.1 μM” indicates experiments where the auxin derivative synthesized in Example 30 is used as the test compound.
(§2) Arabidopsis seeds having the expression cassette of mutant auxin receptor (TIR1 F79G) (SEQ ID NO: B) or wild-type Arabidopsis seeds without said expression cassette were sterilized and stored at 4° C. in the dark for several days. The seeds were transferred to 0.5× Murashige and Skoog (MS) liquid medium and incubated for 1 day at 22° C. in the light with shaking at 140 rpm. The test compound was added to the medium at various concentrations and the seeds were further incubated for 1 week. […] If an auxin response signal has been produced in the root, root elongation will be suppressed.
(§3) Test Example 5: Evaluation of Plant Growth Regulating Action 4 (Root Elongation Assay […]

Experiment [2] concerns the target T1, mutant auxin receptor (TIR1 F79S) (Arabidopsis thaliana, UniProt Q570C0, F79S).
T1 construct: expressed in transfected cells; host or cells: Saccharomyces cerevisiae strain EGY48
The experiment can be described thus: Evaluation of binding to auxin receptor (yeast two-hybrid assay), mutant TIR1 F79S. The settings on record: yeast two-hybrid according to Test Example 1.

The test system of experiment [3] is Arabidopsis seeds expressing the mutant auxin receptor (TIR1 F79G). Put plainly: Root elongation assay (Test Example 5), TIR1 F79G seeds. It counts as in vivo. The settings on record: 35S:TIR1 F79G seeds, 0.1 μM; FIG. 4. On the procedure: as §1, §2, §3
The target of experiment [4] is T2, mutant auxin receptor (TIR1 F79G) (Arabidopsis thaliana, UniProt Q570C0, F79G).
T2 construct: expressed in transfected cells; host or cells: Saccharomyces cerevisiae strain EGY48
Put plainly: Evaluation of binding to auxin receptor (yeast two-hybrid assay), mutant TIR1 F79G. The note with it: for TIR1 F79G: minimum concentration of the test compound at which the well turns blue: Table 2, repeated from Test Example 1, Table 1 for comparison; for mut TIR: minimum concentration of the test compound in which the well turns blue: yeast EGY48, LacZ reporter, X-gal, 30° C. for 3 days, TIR1 F79G with AUX/IAA protein. An excerpt:
(§4) Test Example 1: Evaluation of Binding to Auxin Receptor (Yeast Two-Hybrid Assay
(§5) Specifically, the inventors set up the assay in the following manner.
Yeast strain EGY48 was transformed into a plasmid (pSH18-34) containing a LacZ expression cassette (LexA-operon: LacZ reporter) that is transcriptionally regulated by the LexA-operon, a plasmid derived from pGLex313 containing an expression cassette of LexA-DNA-binding domain fusion protein A (the wild-type auxin receptor: SEQ ID NO. 1, or mutant auxin receptor (TIR1 F79G) where the amino acid residue 79 (phenylalanine) in the wild-type is mutated to a glycine: SEQ ID NO. 2), and a plasmid derived from pJG4-5 containing an expression cassette of B42 transcription activator fusion protein B (AUX/IAA protein: SEQ ID NO: 3). The transformant was cultured at 30° C. on an agar plate made of yeast growth medium (minimal SD base and -His/-Trp/-Ura dropout supplement). The colonies were picked up and incubated overnight in liquid SD/-His/-Trp/-Ura medium at 30° C. Afterwards, the medium was replaced with a liquid medium composed of minimal SD/Gal/Raf base, -His/-Trp/-Ura dropout supplement, 50 mM Na-phosphate buffer (pH 7.0), […] X-gal, and various concentrations of test compounds. After incubation at 30° C. for 3 days, the medium containing yeast was transferred to a white 96-well plate (flat bottom) and observed. The lower the concentration of the test compound when blue color appears, the higher the binding between the test compound and the auxin receptor (wild type or mutant) is. Conversely, higher the concentration of test compound when the blue color appears for the first time, the lower the binding between the test compound and the auxin receptor (wild type or mutant).
(§6) In Table 1, the concentration of “wt TIR” indicates the minimum concentration of the test compound in which the well turns blue when the wild type auxin receptor is used, whereas the concentration of “mut” indicates the minimum concentration of the test compound in which the well turns blue when the mutant auxin receptor (TIR1 F79G) is used.

The target in experiment [5] is T3, mutant auxin receptor (TIR1 F79A) (Arabidopsis thaliana, UniProt Q570C0, F79A).
T3 construct: expressed in transfected cells; host or cells: Saccharomyces cerevisiae strain EGY48
The experiment can be described thus: Evaluation of binding to auxin receptor (yeast two-hybrid assay), mutant TIR1 F79A. The settings on record: yeast two-hybrid according to Test Example 1.

Experiment [6] addresses T4, wild-type auxin receptor (TIR1) (Arabidopsis thaliana, UniProt Q570C0).
T4 construct: expressed in transfected cells; host or cells: Saccharomyces cerevisiae strain EGY48
T4 sequence (Q570C0 1-594): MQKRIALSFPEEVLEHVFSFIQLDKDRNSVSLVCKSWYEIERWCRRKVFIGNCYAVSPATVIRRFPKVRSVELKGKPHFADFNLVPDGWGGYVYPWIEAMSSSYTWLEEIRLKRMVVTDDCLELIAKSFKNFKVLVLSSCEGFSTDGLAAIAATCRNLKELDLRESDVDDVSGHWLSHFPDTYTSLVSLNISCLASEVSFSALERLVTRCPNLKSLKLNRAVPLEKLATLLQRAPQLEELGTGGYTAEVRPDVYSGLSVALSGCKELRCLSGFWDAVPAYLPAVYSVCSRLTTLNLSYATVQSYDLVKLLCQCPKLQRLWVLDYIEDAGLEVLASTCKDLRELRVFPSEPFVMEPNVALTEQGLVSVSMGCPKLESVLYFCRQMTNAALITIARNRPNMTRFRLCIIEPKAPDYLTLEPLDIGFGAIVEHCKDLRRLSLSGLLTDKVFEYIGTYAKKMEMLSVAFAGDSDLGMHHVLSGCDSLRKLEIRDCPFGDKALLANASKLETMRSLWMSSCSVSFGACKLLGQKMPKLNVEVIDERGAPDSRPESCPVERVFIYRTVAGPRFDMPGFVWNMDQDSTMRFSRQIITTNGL
T4 sequence (Q38822 1-93 partner limits assumed): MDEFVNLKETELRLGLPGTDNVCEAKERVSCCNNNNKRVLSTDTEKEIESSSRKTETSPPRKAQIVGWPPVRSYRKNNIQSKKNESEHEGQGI
Put plainly: Evaluation of binding to auxin receptor (yeast two-hybrid assay), wild-type receptor. The note with it: yeast EGY48, LacZ reporter, X-gal, 30° C. for 3 days; wild type auxin receptor with AUX/IAA protein. On the procedure: as §4, §5
The transformant was cultured at 30° C. on an agar plate made of yeast growth medium (minimal SD base and -His/-Trp/-Ura dropout supplement). The colonies were picked up and incubated overnight in liquid SD/-His/-Trp/-Ura medium at 30° C. Afterwards, the medium was replaced with a liquid medium composed of minimal SD/Gal/Raf base, -His/-Trp/-Ura dropout supplement, 50 mM Na-phosphate buffer (pH 7.0), […] X-gal, and various concentrations of test compounds. After incubation at 30° C. for 3 days, the medium containing yeast was transferred to a white 96-well plate (flat bottom) and observed.
as §6

T2 sequence (Q570C0 whole entry F79G, one chain of several): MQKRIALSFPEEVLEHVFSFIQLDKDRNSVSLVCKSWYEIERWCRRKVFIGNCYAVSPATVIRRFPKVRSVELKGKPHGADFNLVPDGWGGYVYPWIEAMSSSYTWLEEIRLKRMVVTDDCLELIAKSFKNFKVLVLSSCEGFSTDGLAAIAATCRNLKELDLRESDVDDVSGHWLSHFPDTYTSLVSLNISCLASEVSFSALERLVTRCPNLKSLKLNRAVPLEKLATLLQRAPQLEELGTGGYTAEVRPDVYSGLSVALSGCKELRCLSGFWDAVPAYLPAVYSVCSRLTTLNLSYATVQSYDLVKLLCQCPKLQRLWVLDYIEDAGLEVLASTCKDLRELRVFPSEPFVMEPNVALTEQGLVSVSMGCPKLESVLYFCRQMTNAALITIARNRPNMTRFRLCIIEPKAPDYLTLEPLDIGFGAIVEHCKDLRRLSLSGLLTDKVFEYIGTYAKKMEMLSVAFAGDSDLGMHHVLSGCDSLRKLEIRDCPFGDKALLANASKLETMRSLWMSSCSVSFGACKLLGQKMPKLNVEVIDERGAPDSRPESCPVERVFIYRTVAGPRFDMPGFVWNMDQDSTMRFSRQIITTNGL
T3 sequence (Q570C0 whole entry F79A, one chain of several): as the sequence (Q570C0 whole entry F79G, one chain of several) above, with G79A counted along it
T1 sequence (Q570C0 whole entry F79S, one chain of several): as the sequence (Q570C0 whole entry F79G, one chain of several) above, with G79S counted along it

Consider `O=C(O)Cc1c[nH]c2ccc(C34CC5CC(CC(C5)C3)C4)cc12` [Compound 21, 2-(5-((3r, 5r, 7r)-adamantan-1-yl)-1H-indol-3-yl)acetic acid], for which the “inhibition of root elongation” value in experiment [1] is “does not inhibit root elongation”. Besides, the “TIR1 F79S: minimum concentration of test compound at which the well turns blue” value in experiment [2] turned out to be 0.0001 µM. Besides, the “inhibition of root elongation” value in experiment [3] is recorded as “inhibited root elongation”. In addition, in experiment [4], the “TIR1 F79G: minimum concentration of the test compound at which the well turns blue” value was 0.001 µM and the “mut TIR: minimum concentration of the test compound in which the well turns blue” value (shortened to “mut TIR: minimum concentration”) was 0.001 µM. Also, the “TIR1 F79A: minimum concentration of the test compound at which the well turns blue” value in experiment [5] is 0.00001 µM. The “wt TIR: minimum concentration of the test compound in which the well turns blue” value (“wt TIR: minimum concentration” below) in experiment [6] was found to be 0.1 µM.

In the case of `O=C(O)Cc1c[nH]c2ccc(C3CCCCC3)cc12` [Compound 15, 2-(5-cyclohexyl-1H-indol-3-yl)acetic acid], the “TIR1 F79S: minimum concentration of test compound at which the well turns blue” value in experiment [2] worked out at 0.001 µM. In addition, in experiment [4], the “TIR1 F79G: minimum concentration of the test compound at which the well turns blue” value stood at 0.001 µM and the “mut TIR: minimum concentration” value is 0.001 µM. In addition, the “TIR1 F79A: minimum concentration of the test compound at which the well turns blue” value in experiment [5] is 0.0001 µM. Besides, in experiment [6], the “wt TIR: minimum concentration” value was found to be 0.1 µM.

As for `O=C(O)Cc1c[nH]c2ccccc12` [Indole-3-acetic acid, indole-3-acetic acid, reference compound], in experiment [4] (ratio mutant / wild type, from Table 1), the “binding affinity of the mutant auxin receptor (TIR1 F79G) relative to that of the wild type auxin receptor” value is listed as “less than 1/1000”. Also, the “mut TIR: minimum concentration” value in experiment [4] was more than 100 µM. Moreover, the “wt TIR: minimum concentration” value in experiment [6] worked out at 0.1 µM.

With `Cc1cccc(-c2ccc3[nH]cc(CC(=O)O)c3c2)c1` [MK-190, 2-(5-(m-tolyl)-1H-indol-3-yl)acetic acid], the “mut TIR: minimum concentration” value in experiment [4] came to 0.1 µM. For the same compound, the “wt TIR: minimum concentration” value in experiment [6] turned out to be 10 µM.

As for `O=C(O)Cc1c[nH]c2ccc(-c3cc(Cl)ccc3Cl)cc12` [MK-308, 2-(5-(2,5-dichlorophenyl)-1H-indol-3-yl)acetic acid], in experiment [4], the “mut TIR: minimum concentration” value was found to be 10 µM. In addition, the “wt TIR: minimum concentration” value in experiment [6] was 100 µM.

Consider `Cc1cccc(-c2ccc3c(CC(=O)O)c[nH]c3c2)c1` [MK-245, 2-(6-(m-tolyl)-1H-indol-3-yl)acetic acid], for which, in experiment [4], the “mut TIR: minimum concentration” value stood at 0.1 µM. For the same compound, the “wt TIR: minimum concentration” value in experiment [6] was found to be 10 µM.

Turning to `Cc1ccc(C)c(-c2ccc3[nH]cc(CC(=O)O)c3c2)c1` [MK-221, 2-(5-(2,5-dimethylphenyl)-1H-indol-3-yl)acetic acid], the “mut TIR: minimum concentration” value in experiment [4] worked out at 10 µM. In addition, the “wt TIR: minimum concentration” value in experiment [6] was more than 100 µM.

The values above are taken from patent publication US12150447B2, “Plant growth regulator” (University of Washington, priority 2017, dated 2024).
